Results reported in US9346809B2 (LEO PHARMA A/S, priority 2009, dated 2016).

How the values were obtained:
Type in all cases: biochemical
[1] = biological target: T1, JAK1 (aa 850-1154, catalytic domain, GST-tag) (Homo sapiens, UniProt P23458); test: JAK kinase assay (HTRF, phosphorylation of TK substrate-biotin), JAK1; conditions: HTRF assay, ATP at Km (7 μM); read-out: JAK1 kinase inhibitory activity (EC50 indicator)
T1 construct: JAK1 (aa 850-1154) and TYK2 (aa 871-1187) are expressed with an N-terminally fused GST-tag; GST (N); purchased Carna Biosciences, Inc; host or cells: baculovirus expression system
T1 sequence (P23458 850-1154): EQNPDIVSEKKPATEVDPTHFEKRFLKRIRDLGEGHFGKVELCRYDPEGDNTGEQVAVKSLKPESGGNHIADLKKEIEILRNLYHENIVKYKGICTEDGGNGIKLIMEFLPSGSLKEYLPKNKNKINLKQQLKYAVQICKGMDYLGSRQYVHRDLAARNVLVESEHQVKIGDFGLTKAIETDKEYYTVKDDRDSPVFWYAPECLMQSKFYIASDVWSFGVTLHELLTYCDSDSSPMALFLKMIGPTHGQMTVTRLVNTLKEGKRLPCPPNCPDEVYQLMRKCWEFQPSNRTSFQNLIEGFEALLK
Procedure, shortened: (§1)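 Per reaction, 5 ng JAK1, 0.1 ng JAK2, 0.3 ng JAK3 or 0.8 ng TYK2 (baculovirus-expressed catalytic domains) acted on 1 μM TK substrate-biotin at Km ATP for 20-30 min, RT. Phosphorylation measured by HTRF.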

[2] = biological target: T2, JAK2 (catalytic domain, His-tag) (Homo sapiens, UniProt O60674); test: JAK kinase assay (HTRF, phosphorylation of TK substrate-biotin), JAK2; conditions: HTRF assay, ATP at Km (4 μM); read-out: JAK2 kinase inhibitory activity (EC50 indicator)
T2 construct: All four purified enzymes contain only the catalytic domain; His (N); purchased Carna Biosciences, Inc; host or cells: baculovirus expression system
T2 sequence (O60674 849-1124 limits assumed): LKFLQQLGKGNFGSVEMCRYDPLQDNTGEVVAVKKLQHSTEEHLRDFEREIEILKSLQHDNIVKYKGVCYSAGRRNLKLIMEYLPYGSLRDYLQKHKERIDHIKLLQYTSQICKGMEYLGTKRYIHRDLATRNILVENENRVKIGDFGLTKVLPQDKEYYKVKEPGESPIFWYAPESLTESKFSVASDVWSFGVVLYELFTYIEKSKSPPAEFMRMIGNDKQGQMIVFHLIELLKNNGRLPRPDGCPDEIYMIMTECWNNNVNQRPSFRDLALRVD
Procedure, shortened: as §1

[3] = biological target: T3, JAK3 (catalytic domain, His-tag) (Homo sapiens, UniProt P52333); test: JAK kinase assay (HTRF, phosphorylation of TK substrate-biotin), JAK3; conditions: HTRF assay, ATP at Km (2 μM); read-out: JAK3 kinase inhibitory activity (EC50 indicator)
T3 construct: All four purified enzymes contain only the catalytic domain; His (N); purchased Carna Biosciences, Inc; host or cells: baculovirus expression system
T3 sequence (P52333 822-1111 limits assumed): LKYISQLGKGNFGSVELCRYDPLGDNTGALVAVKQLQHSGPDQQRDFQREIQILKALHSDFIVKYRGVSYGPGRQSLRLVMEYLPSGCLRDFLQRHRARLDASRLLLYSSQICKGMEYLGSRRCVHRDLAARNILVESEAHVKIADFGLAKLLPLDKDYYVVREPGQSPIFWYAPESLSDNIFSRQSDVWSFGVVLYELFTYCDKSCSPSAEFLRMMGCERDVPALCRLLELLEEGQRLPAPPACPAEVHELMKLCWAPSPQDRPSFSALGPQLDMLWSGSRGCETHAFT
Procedure, shortened: as §1

[4] = biological target: T4, TYK2 (aa 871-1187, catalytic domain, GST-tag) (Homo sapiens, UniProt P29597); test: JAK kinase assay (HTRF, phosphorylation of TK substrate-biotin), TYK2; conditions: HTRF assay, ATP at Km (13 μM); read-out: TYK2 kinase inhibitory activity (EC50 indicator)
T4 construct: JAK1 (aa 850-1154) and TYK2 (aa 871-1187) are expressed with an N-terminally fused GST-tag; GST (N); purchased Carna Biosciences, Inc; host or cells: baculovirus expression system
T4 sequence (P29597 871-1187): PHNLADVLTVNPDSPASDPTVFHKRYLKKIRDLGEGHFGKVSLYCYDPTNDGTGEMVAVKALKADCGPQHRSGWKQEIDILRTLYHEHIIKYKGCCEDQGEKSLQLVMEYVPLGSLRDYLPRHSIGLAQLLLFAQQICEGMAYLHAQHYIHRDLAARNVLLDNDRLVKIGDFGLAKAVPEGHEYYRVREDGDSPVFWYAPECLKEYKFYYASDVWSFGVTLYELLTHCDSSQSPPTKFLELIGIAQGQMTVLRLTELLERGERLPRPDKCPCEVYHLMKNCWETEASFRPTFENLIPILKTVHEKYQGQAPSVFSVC
Procedure, shortened: as §1

| SMILES | EC50 [1] [µM] | EC50 [2] [µM] | EC50 [3] [µM] | EC50 [4] [µM] |
| --- | --- | --- | --- | --- |
| N#CCCCS(=O)(=O)c1ccc(C(=O)N2CCN(c3ncnc4[nH]ccc34)CC23CC3)cc1 [Example 408, 4-{4-[7-(7H-Pyrrolo[2,3-d]pyrimidin-4-yl)-4,7-diaza-spiro[2.5]octane-4-carbonyl]-benzenesulfonyl}-butyronitrile] | < 0.1 | < 0.1 | > 0.5 | > 0.5 |
| NS(=O)(=O)Cc1ccc(C(=O)N2CCN(c3ncnc4[nH]ccc34)CC23CC3)cc1 [Example 409, {4-[7-(7H-Pyrrolo[2,3-d]pyrimidin-4-yl)-4,7-diaza-spiro[2.5]octane-4-carbonyl]-phenyl}-methanesulfonamide] | < 0.1 | < 0.1 | < 0.1 | 0.1 to 0.5 |
| NS(=O)(=O)c1ccc(C(=O)NCC(=O)N2CCN(c3ncnc4[nH]ccc34)CC23CC3)cc1 [Example 410, N-{2-Oxo-2-[7-(7H-pyrrolo[2,3-d]pyrimidin-4-yl)-4,7-diaza-spiro[2.5]oct-4-yl]-ethyl}-4-sulfamoyl-benzamide] | < 0.1 | < 0.1 | < 0.1 | < 0.1 |
| Cc1cc(S(N)(=O)=O)ccc1OCC(=O)N1CCN(c2ncnc3[nH]ccc23)CC12CC2 [Example 411, 3-Methyl-4-{2-oxo-2-[7-(7H-pyrrolo[2,3-d]pyrimidin-4-yl)-4,7-diaza-spiro[2.5]oct-4-yl]-ethoxy}-benzenesulfonamide] | < 0.1 | < 0.1 | < 0.1 | < 0.1 |

The next lines start with the values.

| EC50 [1] [µM] | EC50 [2] [µM] | EC50 [3] [µM] | EC50 [4] [µM] | SMILES |
| --- | --- | --- | --- | --- |
| < 0.1 | < 0.1 | < 0.1 | > 0.5 | NS(=O)(=O)c1cnn(CC(=O)N2CCN(c3ncnc4[nH]ccc34)CC23CC3)c1 [Example 412, 1-{2-Oxo-2-[7-(7H-pyrrolo[2,3-d]pyrimidin-4-yl)-4,7-diaza-spiro[2.5]oct-4-yl]-ethyl}-1H-pyrazole-4-sulfonic acid amide] |
| 0.1 to 0.5 | < 0.1 | 0.1 to 0.5 | > 0.5 | O=C(C1CCc2ccccc21)N1CCN(c2ncnc3[nH]ccc23)CC12CC2 (centres unmarked) [Example 413, Indan-1-yl-[7-(7H-pyrrolo[2,3-d]pyrimidin-4-yl)-4,7-diaza-spiro[2.5]oct-4-yl]-methanone] |
| < 0.1 | < 0.1 | < 0.1 | 0.1 to 0.5 | Cc1cnc(C(=O)N2CCN(c3ncnc4[nH]ccc34)CC23CC3)cn1 [Example 414, (5-Methyl-pyrazin-2-yl)-[7-(7H-pyrrolo[2,3-d]pyrimidin-4-yl)-4,7-diaza-spiro[2.5]oct-4-yl]-methanone] |
| 0.1 to 0.5 | 0.1 to 0.5 | > 0.5 | > 0.5 | O=C([C@@H]1CCCc2ccccc21)N1CCN(c2ncnc3[nH]ccc23)CC12CC2 [Example 415, [7-(7H-Pyrrolo[2,3-d]pyrimidin-4-yl)-4,7-diaza-spiro[2.5]oct-4-yl]-(1,2,3,4-tetrahydro-naphthalen-1-yl)-methanone] |
| 0.1 to 0.5 | < 0.1 | 0.1 to 0.5 | > 0.5 | O=C([C@H]1CCCc2ccccc21)N1CCN(c2ncnc3[nH]ccc23)CC12CC2 [Example 416, [7-(7H-Pyrrolo[2,3-d]pyrimidin-4-yl)-4,7-diaza-spiro[2.5]oct-4-yl]-(1,2,3,4-tetrahydro-naphthalen-1-yl)-methanone] |
| < 0.1 | < 0.1 | < 0.1 | < 0.1 | Cc1nccnc1C(=O)N1CCN(c2ncnc3[nH]ccc23)CC12CC2 [Example 417, (3-Methyl-pyrazin-2-yl)-[7-(7H-pyrrolo[2,3-d]pyrimidin-4-yl)-4,7-diaza-spiro[2.5]oct-4-yl]-methanone] |
| < 0.1 | < 0.1 | < 0.1 | < 0.1 | Cc1cncc(C(=O)N2CCN(c3ncnc4[nH]ccc34)CC23CC3)n1 [Example 418, (6-Methyl-pyrazin-2-yl)-[7-(7H-pyrrolo[2,3-d]pyrimidin-4-yl)-4,7-diaza-spiro[2.5]oct-4-yl]-methanone] |
